From patent US11034672B1, “Tyrosine kinase inhibitor compositions, methods of making and methods of use” (Black Diamond Therapeutics, Inc., priority 2018, dated 2021) come the findings set out here.

Holding throughout (assay type): cell-based
For experiment [1], the target named is T1, HER2 YVMA (Homo sapiens, UniProt P04626, INS775YVMA).
T1 construct: expressed in transfected cells; host or cells: BaF3 (murine pro-B)
Nature of the experiment: Activity for inhibiting HER2 (Table B), HER2 YVMA. To be noted: read-out: HER2 YVMA, potency code (IC50). The procedure: (§1) EC50 values were determined with the same application.

The target of experiment [2] is T2, HER2 S310F (Homo sapiens, UniProt P04626, S310F).
T2 construct: expressed in transfected cells; host or cells: BaF3 (murine pro-B)
T2 sequence (P04626 23-1255 S310F): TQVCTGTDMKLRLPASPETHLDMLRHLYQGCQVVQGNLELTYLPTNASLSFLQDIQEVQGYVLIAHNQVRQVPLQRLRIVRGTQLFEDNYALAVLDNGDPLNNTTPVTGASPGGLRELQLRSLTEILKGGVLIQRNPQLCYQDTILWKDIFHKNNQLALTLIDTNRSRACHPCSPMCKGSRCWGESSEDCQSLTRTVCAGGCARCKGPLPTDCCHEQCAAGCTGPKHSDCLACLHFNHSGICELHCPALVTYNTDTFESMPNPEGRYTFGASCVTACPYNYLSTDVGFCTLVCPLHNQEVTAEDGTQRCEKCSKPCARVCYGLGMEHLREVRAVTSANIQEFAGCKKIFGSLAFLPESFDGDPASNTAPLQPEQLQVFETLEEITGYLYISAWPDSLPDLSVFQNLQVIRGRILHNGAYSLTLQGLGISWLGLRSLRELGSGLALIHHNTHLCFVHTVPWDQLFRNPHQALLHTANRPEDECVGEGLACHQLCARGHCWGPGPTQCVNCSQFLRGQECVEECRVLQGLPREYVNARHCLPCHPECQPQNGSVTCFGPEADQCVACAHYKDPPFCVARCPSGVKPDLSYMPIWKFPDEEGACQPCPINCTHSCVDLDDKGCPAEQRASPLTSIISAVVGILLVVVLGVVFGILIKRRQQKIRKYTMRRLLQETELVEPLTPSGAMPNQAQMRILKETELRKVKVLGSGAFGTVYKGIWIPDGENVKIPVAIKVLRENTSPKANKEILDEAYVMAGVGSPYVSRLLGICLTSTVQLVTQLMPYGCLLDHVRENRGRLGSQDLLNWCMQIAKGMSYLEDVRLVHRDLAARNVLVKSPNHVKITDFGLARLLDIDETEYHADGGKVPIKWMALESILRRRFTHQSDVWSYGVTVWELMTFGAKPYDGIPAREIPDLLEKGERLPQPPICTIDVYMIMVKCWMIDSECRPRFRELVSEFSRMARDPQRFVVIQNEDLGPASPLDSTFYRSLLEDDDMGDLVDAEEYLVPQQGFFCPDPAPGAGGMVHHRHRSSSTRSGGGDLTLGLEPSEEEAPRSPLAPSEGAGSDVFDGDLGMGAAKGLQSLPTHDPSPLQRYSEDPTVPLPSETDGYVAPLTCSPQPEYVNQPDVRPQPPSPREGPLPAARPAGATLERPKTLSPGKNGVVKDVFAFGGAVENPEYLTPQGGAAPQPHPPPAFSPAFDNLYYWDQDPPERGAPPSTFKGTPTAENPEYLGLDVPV
Nature of the experiment: Activity for inhibiting HER2 (Table B), HER2 S310F. To be noted: read-out: HER2 S310F, potency code (IC50). The procedure:
as §1

The target in experiment [3] is T3, HER2 WT (Homo sapiens, UniProt P04626). Nature of the experiment: Activity for inhibiting HER2 (Table B), HER2 WT.
T3 sequence (P04626 23-1255): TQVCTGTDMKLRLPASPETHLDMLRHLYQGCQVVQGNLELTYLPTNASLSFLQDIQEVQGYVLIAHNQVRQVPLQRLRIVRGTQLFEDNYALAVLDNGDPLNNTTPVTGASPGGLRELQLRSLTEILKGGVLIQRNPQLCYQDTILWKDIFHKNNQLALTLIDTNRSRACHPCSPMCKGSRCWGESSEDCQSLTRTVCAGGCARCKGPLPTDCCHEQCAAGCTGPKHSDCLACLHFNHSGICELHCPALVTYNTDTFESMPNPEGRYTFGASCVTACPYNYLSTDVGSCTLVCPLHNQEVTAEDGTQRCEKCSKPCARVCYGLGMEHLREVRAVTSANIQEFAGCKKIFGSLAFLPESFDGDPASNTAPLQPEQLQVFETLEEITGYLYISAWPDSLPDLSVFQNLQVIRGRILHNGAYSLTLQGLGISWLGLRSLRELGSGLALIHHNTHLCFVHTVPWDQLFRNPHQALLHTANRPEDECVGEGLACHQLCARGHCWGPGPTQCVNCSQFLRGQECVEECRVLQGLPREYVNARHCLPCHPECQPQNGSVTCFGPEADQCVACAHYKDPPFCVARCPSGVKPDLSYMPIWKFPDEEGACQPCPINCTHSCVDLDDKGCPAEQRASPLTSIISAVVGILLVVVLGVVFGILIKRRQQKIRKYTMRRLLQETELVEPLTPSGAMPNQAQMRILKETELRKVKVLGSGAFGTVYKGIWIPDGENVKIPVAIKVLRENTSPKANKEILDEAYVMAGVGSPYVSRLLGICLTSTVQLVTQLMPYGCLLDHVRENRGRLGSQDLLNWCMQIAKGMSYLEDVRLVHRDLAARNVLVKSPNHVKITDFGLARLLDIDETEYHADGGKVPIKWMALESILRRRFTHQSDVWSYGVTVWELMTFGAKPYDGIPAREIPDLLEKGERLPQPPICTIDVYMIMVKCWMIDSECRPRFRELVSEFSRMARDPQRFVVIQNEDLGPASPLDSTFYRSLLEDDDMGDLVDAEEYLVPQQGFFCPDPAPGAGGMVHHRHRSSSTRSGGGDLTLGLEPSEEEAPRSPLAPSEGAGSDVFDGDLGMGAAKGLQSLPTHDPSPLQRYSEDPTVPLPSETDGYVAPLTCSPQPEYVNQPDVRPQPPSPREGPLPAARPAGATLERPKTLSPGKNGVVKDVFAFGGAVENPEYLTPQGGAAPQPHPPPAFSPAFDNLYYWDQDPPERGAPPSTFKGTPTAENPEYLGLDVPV
Experiment [4] addresses T4, EGFR V3 (Homo sapiens, UniProt P00533, DELINS30-297G).
T4 construct: expressed in transfected cells; host or cells: BaF3 (murine pro-B), retroviral pMXs-IRES-Blasticidin
Kind of experiment: Activity for inhibiting EGFR (Table A), EGFR V3 (EGFR-Viii). Particulars: read-out: EGFR V3, potency code (IC50).

Experiment [5] addresses T1, HER2 YVMA. Nature of the experiment: BaF3 cell proliferation assay, HER2 YVMA (Table B). To be noted: potency code, 3 days, CellTiterGlo, read-out: HER2 YVMA (Activity for Inhibiting HER2).
Experiment [6] concerns the target T3, HER2 WT. Kind of experiment: BaF3 cell proliferation assay, HER2 WT (Table B). Particulars: potency code, 3 days, CellTiterGlo, read-out: HER2 WT (Activity for Inhibiting HER2). For orientation: Cellular ATP, detected with luciferase, serves as a proxy for viable cell number.
Experiment [7] addresses T4, EGFR V3. Kind of experiment: BaF3 cell proliferation assay, EGFR V3 (Table A). Particulars: potency code, 3 days, CellTiterGlo, read-out: EGFR V3 (Activity for Inhibiting EGFR). An outline of the steps: (§2)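 Mouse BaF3 cells were retrovirally transduced (pMXs-IRES-Blasticidin, VSV-G pseudotyped virus from HEK 293T) with the human EGFR or HER2 variant, selected in 10 μg/ml Blasticidin for one week, then made IL-3 independent. EC50 values come from proliferation of these lines.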

Experiment [8] deals with T2, HER2 S310F. Kind of experiment: BaF3 cell proliferation assay, HER2 S310F (Table B). To be noted: potency code, 3 days, CellTiterGlo, read-out: HER2 S310F (Activity for Inhibiting HER2).
In experiment [9] the target is T5, EGFR WT (Homo sapiens, UniProt P00533). Kind of experiment: Activity for inhibiting EGFR (Table A), EGFR WT. Particulars: read-out: EGFR WT, potency code (IC50).
The target of experiment [10] is T5, EGFR WT. Nature of the experiment: BaF3 cell proliferation assay, EGFR WT (Table A). To be noted: potency code, 3 days, CellTiterGlo, read-out: EGFR WT (Activity for Inhibiting EGFR). An outline of the steps:
as §2

[11] abbreviates: Table B, read-out: HER2 WT, potency code (IC50).
The mark [12] stands for this setting: text lists of compounds, read-out: IC50 value for inhibiting wild-type HER2.

T4 sequence (P00533 with tags, fused parts or gaps DELINS30-297G): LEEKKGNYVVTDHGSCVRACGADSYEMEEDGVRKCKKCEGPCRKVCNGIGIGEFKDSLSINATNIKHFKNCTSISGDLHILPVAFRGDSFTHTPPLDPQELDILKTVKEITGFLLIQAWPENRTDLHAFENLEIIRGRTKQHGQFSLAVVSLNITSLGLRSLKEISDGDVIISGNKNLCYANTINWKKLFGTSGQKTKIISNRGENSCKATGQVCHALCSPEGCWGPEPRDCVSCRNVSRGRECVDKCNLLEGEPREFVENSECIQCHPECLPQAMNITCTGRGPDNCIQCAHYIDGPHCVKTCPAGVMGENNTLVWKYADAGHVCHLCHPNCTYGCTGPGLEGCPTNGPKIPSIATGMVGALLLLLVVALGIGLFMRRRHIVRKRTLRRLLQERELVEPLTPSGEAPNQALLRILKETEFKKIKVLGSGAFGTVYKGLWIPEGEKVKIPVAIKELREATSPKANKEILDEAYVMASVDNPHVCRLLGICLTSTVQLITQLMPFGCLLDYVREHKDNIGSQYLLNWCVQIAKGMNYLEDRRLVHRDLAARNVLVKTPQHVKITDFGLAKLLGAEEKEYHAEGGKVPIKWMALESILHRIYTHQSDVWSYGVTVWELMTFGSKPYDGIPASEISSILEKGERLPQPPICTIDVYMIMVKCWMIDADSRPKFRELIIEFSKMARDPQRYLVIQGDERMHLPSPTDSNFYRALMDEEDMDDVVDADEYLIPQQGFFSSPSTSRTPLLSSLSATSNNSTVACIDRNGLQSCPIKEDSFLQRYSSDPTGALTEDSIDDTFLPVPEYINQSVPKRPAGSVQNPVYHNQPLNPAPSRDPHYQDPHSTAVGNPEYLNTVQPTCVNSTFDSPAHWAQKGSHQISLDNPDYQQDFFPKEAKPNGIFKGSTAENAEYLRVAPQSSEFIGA
T1 sequence (P04626 with tags, fused parts or gaps INS775YVMA): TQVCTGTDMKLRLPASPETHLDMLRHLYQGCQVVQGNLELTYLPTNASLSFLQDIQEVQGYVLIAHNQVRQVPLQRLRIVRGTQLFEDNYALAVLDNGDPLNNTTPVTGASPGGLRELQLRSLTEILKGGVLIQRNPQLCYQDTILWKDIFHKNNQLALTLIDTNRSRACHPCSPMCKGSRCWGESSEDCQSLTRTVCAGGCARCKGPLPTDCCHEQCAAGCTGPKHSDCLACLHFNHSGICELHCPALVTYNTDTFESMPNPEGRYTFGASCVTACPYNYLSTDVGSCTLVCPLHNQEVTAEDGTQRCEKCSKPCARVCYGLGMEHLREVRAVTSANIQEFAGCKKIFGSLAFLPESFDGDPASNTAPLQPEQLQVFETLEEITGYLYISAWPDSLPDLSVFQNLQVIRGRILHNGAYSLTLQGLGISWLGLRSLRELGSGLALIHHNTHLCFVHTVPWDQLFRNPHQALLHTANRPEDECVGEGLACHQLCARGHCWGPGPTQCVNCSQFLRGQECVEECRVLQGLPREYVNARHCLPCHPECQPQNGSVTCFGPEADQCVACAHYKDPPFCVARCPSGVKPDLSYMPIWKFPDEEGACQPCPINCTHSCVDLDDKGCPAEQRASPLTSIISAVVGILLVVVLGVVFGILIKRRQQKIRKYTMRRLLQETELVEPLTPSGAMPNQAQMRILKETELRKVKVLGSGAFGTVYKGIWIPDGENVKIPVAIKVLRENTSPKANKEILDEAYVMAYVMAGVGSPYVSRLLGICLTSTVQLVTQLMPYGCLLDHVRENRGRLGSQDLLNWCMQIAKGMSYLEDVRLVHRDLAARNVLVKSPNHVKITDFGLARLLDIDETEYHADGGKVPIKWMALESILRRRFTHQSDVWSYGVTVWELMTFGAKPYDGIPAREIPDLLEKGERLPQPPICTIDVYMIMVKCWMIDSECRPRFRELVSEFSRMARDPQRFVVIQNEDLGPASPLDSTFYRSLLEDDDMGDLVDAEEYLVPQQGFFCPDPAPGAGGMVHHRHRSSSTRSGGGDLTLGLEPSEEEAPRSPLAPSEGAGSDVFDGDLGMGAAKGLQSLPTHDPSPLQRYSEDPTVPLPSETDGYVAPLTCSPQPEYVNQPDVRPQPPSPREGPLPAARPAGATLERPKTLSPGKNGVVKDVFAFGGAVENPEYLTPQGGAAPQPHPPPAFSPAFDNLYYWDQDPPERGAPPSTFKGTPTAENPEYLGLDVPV

As for `C=CC(=O)Nc1cc2c(Nc3ccc(OCc4ccccn4)c(Cl)c3)ncnc2cc1OCCn1ccnc1` [compound 10], the IC50 on HER2 YVMA [1] is 200 to 300 nM; on HER2 S310F [2] it was 20 to 30 nM; at HER2 WT [3] (setting [11]), 10 to 20 nM; on HER2 WT [3] (setting [12]), no more than 20 nM; at EGFR V3 [4], 50 to 100 nM; on HER2 YVMA [5] it was 200 to 300 nM. The IC50 is 10 to 20 nM on HER2 WT [6]; 50 to 100 nM at EGFR V3 [7]; 20 to 30 nM on HER2 S310F [8]; greater than 1000 nM at EGFR WT [9]; greater than 1000 nM on EGFR WT [10].

Consider `C=CC(=O)Nc1cc2c(Nc3ccc(OCc4ccccn4)c(Cl)c3)ncnc2cc1OC1CCN(C)C1` (centres unmarked) [compound 16], for which the IC50 at HER2 YVMA [1] is 30 to 50 nM; at HER2 S310F [2], 20 to 30 nM; at HER2 WT [3] (setting [11]), less than 5 nM; at HER2 WT [3] (setting [12]), no more than 5 nM; at EGFR V3 [4], 20 to 30 nM; at HER2 YVMA [5], 30 to 50 nM. For the same molecule, the IC50 on HER2 WT [6] was less than 5 nM; at EGFR V3 [7], 20 to 30 nM; on HER2 S310F [8], 20 to 30 nM; at EGFR WT [9], 200 to 300 nM; at EGFR WT [10], 200 to 300 nM.

With `C=CC(=O)Nc1cc2c(Nc3ccc(OCc4ccccn4)c(Cl)c3)ncnc2cc1O[C@H]1CCN(C)C1` [compound 18], the IC50 was 50 to 100 nM at HER2 YVMA [1]; 20 to 30 nM at HER2 S310F [2]; 5 to 10 nM on HER2 WT [3] (setting [11]); no more than 10 nM on HER2 WT [3] (setting [12]); 20 to 30 nM at EGFR V3 [4]; 50 to 100 nM on HER2 YVMA [5]. The IC50 was 5 to 10 nM on HER2 WT [6]; 20 to 30 nM on EGFR V3 [7]; 20 to 30 nM on HER2 S310F [8]; 300 to 500 nM on EGFR WT [9]; 300 to 500 nM at EGFR WT [10].

Turning to `C=CC(=O)Nc1cc2c(Nc3ccc(OCc4ccccn4)c(Cl)c3)ncnc2cc1OCCN1CCC(OC)C1` (centres unmarked) [compound 29], the IC50 on HER2 YVMA [1] is 50 to 100 nM; on HER2 S310F [2] it was 10 to 20 nM; at HER2 WT [3] (setting [11]), less than 5 nM; at HER2 WT [3] (setting [12]), no more than 5 nM; at EGFR V3 [4], 20 to 30 nM; on HER2 YVMA [5], 50 to 100 nM. In addition, the IC50 at HER2 WT [6] was less than 5 nM; on EGFR V3 [7] it was 20 to 30 nM; on HER2 S310F [8] it was 10 to 20 nM; at EGFR WT [9] it was 300 to 500 nM; on EGFR WT [10], 300 to 500 nM.

With `C=CC(=O)Nc1cc2c(Nc3ccc(OCc4ccccn4)c(Cl)c3)ncnc2cc1OCCN1CCC(O)C1` (centres unmarked) [compound 30], the IC50 is 100 to 200 nM at HER2 YVMA [1]; 10 to 20 nM at HER2 S310F [2]; less than 5 nM on HER2 WT [3] (setting [11]); no more than 5 nM on HER2 WT [3] (setting [12]); 30 to 50 nM at EGFR V3 [4]; 100 to 200 nM at HER2 YVMA [5]. For the same molecule, the IC50 on HER2 WT [6] was less than 5 nM; on EGFR V3 [7], 30 to 50 nM; on HER2 S310F [8] it was 10 to 20 nM; on EGFR WT [10], 300 to 500 nM.

For `C=CC(=O)Nc1cc2c(Nc3ccc(OCc4ccccn4)c(Cl)c3)ncnc2cc1OCCN(C)CC` [compound 32], the IC50 on HER2 YVMA [1] is 50 to 100 nM; at HER2 S310F [2] it was 10 to 20 nM; at HER2 WT [3] (setting [11]), less than 5 nM; on HER2 WT [3] (setting [12]), no more than 5 nM; on EGFR V3 [4] it was 20 to 30 nM; at HER2 YVMA [5] it was 50 to 100 nM. Besides, the IC50 at HER2 WT [6] is less than 5 nM; at EGFR V3 [7], 20 to 30 nM; at HER2 S310F [8], 10 to 20 nM; on EGFR WT [9], 300 to 500 nM; at EGFR WT [10], 300 to 500 nM.
